The values below are quoted from earlier work in patent US10155050B2, “Cross-linked star-shaped self-assembled polypeptides and its use as carriers in biomedical applications” (CENTRO DE INVESTIGACION PRINCIPE FELIPE, priority 2015, dated 2018).

The conditions of the data set: FVB mice.

inulin: the renal clearance value result is recorded as “around 20 mL/h”.
